Here are results for 5 molecules from ChEMBL document CHEMBL5465560, “Selectivity Literature for EUbOPEN Chemogenomic Library” (2024).

For assay [1], the target named is Cyclin-dependent kinase 16 (Homo sapiens) (UniProt Q00536). In words: Selectivity interaction (KinomeScan (DiscoverX)) EUB0001619a CDK16. The following applies: at 1 µM.
For assay [2], the target named is Casein kinase I isoform gamma-2 (Homo sapiens) (UniProt P78368). In words: Selectivity interaction (KinomeScan (DiscoverX)) EUB0001619a CSNK1G2. The note with it: at 1 µM.
Casein kinase I isoform gamma-2 (Homo sapiens), sequence (P78368 whole entry, looked up, canonical isoform): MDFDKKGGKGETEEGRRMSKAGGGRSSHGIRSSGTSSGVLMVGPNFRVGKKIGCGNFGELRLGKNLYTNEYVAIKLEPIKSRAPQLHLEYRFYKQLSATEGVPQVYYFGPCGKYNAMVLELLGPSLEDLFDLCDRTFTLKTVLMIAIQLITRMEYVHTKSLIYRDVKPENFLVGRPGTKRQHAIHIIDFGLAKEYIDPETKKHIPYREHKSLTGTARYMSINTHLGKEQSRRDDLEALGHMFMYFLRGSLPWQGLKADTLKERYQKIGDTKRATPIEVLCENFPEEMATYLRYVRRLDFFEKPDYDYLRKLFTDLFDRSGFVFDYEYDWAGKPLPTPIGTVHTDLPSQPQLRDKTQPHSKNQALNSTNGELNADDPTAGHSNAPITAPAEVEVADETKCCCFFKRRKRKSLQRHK
The target of assay [3] is Cyclin-dependent kinase 18 (Homo sapiens) (UniProt Q07002). The following applies: at 10 µM.
Cyclin-dependent kinase 18 (Homo sapiens), sequence (Q07002 whole entry): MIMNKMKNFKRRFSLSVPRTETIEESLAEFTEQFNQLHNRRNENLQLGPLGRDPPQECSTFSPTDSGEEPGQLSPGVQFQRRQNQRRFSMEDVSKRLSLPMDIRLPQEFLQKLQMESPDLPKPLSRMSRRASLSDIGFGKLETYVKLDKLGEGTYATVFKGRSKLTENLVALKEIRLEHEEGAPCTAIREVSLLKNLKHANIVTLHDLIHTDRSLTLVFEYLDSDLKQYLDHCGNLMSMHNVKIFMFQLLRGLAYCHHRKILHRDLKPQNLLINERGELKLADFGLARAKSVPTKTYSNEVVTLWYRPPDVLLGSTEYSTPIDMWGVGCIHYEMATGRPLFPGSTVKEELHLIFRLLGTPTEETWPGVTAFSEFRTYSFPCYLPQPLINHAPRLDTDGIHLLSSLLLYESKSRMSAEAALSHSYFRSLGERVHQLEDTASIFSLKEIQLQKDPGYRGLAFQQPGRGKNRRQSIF
For assay [4], the target named is Serine/threonine-protein kinase PRP4 homolog (Homo sapiens) (UniProt Q13523). Briefly: Selectivity interaction (KinomeScan (DiscoverX)) EUB0000666a PRPF4B. The note with it: at 10 µM.
Serine/threonine-protein kinase PRP4 homolog (Homo sapiens), sequence (Q13523 whole entry): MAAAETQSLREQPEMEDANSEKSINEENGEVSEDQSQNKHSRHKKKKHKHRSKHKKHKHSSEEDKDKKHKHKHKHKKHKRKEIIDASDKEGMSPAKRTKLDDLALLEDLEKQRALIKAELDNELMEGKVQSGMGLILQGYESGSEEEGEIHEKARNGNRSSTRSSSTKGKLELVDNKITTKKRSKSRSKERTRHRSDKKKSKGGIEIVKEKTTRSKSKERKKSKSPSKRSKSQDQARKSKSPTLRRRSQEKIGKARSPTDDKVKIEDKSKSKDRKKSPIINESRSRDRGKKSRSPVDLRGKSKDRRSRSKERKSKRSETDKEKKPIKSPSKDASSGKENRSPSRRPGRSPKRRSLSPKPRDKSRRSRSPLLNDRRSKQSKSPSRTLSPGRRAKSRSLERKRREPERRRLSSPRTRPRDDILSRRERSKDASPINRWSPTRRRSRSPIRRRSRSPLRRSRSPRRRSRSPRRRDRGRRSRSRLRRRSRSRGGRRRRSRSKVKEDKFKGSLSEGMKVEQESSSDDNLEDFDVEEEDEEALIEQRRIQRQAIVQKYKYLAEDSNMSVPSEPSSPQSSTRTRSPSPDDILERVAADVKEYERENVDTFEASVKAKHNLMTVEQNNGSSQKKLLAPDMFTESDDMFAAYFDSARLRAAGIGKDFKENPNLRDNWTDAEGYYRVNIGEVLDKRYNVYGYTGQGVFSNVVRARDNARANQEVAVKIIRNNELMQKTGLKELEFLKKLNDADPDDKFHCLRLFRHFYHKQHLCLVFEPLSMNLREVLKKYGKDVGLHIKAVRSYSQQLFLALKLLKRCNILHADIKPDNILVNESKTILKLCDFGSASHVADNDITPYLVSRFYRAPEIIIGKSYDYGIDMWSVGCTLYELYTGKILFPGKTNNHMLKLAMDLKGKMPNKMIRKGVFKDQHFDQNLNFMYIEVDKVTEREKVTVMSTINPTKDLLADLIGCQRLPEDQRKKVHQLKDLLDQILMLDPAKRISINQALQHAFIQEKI
Assay [5] has as its target T1, Serine/threonine-protein kinase tousled-like 1 (Homo sapiens) (UniProt Q9UKI8).
T1 sequence (whole entry): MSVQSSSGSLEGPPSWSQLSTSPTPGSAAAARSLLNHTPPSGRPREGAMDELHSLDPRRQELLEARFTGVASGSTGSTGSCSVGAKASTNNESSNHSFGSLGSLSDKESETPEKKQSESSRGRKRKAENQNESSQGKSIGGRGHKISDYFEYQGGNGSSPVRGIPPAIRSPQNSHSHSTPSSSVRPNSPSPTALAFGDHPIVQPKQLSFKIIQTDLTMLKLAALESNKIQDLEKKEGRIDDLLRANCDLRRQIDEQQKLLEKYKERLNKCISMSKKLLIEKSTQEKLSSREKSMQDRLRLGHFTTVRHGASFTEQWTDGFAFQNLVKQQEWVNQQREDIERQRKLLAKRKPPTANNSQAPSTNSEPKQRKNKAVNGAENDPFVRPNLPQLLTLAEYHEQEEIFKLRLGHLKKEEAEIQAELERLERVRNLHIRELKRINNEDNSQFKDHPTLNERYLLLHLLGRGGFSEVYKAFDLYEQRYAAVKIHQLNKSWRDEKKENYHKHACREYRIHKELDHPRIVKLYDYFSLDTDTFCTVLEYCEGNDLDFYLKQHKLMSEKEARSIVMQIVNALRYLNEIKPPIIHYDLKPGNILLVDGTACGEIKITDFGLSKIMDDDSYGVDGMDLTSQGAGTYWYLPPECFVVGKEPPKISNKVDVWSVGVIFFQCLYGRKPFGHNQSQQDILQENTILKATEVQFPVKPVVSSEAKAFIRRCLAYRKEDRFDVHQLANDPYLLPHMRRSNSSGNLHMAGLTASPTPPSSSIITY
Briefly: Selectivity interaction (KinomeScan (DiscoverX)) EUB0000666a TLK1. The note with it: at 10 µM.

Assay [6] has as its target Dual specificity mitogen-activated protein kinase kinase 1 (Homo sapiens, UniProt Q02750). Briefly: Selectivity interaction (ActivX KiNativ screen (kinase selectivity in THP-1 cell lysates)) EUB0000639a MAP2K1. It is filed as subcellular. The note with it: lysate, at 1 µM.
The target of assay [7] is T2, Inhibitor of nuclear factor kappa-B kinase subunit beta (Homo sapiens) (UniProt O14920).
T2 sequence (whole entry): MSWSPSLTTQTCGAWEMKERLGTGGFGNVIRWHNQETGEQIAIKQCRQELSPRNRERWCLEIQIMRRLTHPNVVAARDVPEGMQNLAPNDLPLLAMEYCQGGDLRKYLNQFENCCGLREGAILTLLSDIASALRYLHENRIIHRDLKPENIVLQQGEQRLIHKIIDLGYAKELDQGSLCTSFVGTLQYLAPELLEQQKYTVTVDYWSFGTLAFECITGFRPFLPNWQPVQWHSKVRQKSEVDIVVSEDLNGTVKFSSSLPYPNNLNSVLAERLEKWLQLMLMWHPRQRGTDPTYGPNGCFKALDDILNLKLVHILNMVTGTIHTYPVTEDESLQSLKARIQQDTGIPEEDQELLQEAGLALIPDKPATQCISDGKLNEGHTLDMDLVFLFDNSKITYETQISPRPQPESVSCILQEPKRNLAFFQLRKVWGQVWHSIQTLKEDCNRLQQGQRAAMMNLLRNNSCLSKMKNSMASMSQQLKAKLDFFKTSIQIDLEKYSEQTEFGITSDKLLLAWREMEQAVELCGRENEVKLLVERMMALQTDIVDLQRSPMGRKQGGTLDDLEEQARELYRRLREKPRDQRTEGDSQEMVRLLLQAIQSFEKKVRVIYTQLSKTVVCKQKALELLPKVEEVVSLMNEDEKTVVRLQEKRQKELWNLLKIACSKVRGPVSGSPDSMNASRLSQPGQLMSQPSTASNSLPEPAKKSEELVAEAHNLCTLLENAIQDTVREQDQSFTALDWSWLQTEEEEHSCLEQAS
Briefly: Selectivity interaction (KinomeScan (DiscoverX)) EUB0001079a IKBKB. The note with it: at 1 µM.

Dual specificity mitogen-activated protein kinase kinase 1, sequence (Q02750 whole entry): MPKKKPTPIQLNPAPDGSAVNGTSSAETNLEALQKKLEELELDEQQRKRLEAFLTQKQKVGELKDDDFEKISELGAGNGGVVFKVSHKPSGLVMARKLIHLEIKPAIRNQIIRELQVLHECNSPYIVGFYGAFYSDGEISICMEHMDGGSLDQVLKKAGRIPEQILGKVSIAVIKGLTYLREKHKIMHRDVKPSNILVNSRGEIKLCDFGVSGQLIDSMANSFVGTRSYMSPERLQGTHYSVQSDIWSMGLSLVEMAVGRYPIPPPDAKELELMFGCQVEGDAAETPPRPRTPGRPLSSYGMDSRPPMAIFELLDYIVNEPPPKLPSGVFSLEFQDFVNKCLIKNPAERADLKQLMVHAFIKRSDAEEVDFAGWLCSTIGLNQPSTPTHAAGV
Cyclin-dependent kinase 16 (Homo sapiens), sequence (Q00536 whole entry, canonical isoform): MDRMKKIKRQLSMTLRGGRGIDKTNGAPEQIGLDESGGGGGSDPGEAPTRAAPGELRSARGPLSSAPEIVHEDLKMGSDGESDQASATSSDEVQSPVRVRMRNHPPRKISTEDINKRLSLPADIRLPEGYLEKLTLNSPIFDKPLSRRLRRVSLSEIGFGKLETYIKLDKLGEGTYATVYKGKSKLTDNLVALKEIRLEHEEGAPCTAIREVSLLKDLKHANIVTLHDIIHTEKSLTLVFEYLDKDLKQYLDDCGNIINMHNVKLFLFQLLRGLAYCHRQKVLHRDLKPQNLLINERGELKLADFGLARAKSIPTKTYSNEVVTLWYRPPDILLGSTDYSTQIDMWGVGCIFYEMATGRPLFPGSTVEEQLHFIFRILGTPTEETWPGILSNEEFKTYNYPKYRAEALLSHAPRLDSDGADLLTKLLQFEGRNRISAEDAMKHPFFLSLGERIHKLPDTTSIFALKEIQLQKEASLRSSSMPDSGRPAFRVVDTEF

Consider `N#Cc1cccc(-c2c[nH]c3ncnc(N4CCOCC4)c23)c1`, for which the % of control in assay [1] amounted to 90%; in assay [2] it was 89%.

On to `CCN(CC)CCCCNc1ncc2cc(-c3cc(OC)cc(OC)c3)c(NC(=O)NC(C)(C)C)nc2n1`, for which the % of control in assay [3] came out at 100%.

Turning to `O=C(NOC[C@H](O)CO)c1ccc(F)c(F)c1Nc1ccc(I)cc1F`, the % of control in assay [4] amounted to 77%; in assay [5] it was 89%.

The molecule `CC[C@@H]1[C@H](F)C(=O)N[C@@H]1COc1nccc2cc(C(N)=O)c(OC)cc12` [ZIMLOVISERTIB] registered a % of inhibition in assay [6] of 0.2%.

Consider `Nc1cnc(N2CCc3cc(S(=O)(=O)Nc4c(F)cc(Cl)cc4F)cc(N4CCCC4=O)c32)nc1` [TP-020n], for which the % of control in assay [7] stood at 96%.
